In brackets after ≈: the same amount, converted by molar mass.
What was measured:
SAUR 9218 = experiment: MIC by standard agar dilution method; assay type: cell-based; conditions: Mueller Hinton agar, incubated overnight at 35° C., lowest concentration that inhibits visible growth
Description: MIC Test Method The in vitro MICs of test compounds were determined by a standard agar dilution method. A stock drug solution of each analog was prepared in the preferred solvent, usually DMSO:H2O (1:3). Serial 2-fold dilutions of each sample are made using 1.0 ml aliquots of sterile distilled water. To each 1.0 ml aliquot of drug was added 9 ml of molten Mueller Hinton agar medium. The drug-supplemented agar was mixed, poured into 15×100 mm petri dishes, and allowed to solidify and dry prior to inoculation. Vials of each of the test organisms are maintained frozen in the vapor phase of a liquid nitrogen freezer. Test cultures are grown overnight at 35° C. on the medium appropriate for the organism. Colonies are harvested with a sterile swab, and cell suspensions are prepared in Trypticase Soy broth (TSB) to equal the turbidity of a 0.5 McFarland standard. A 1:20 dilution of each suspension was made in TSB. The plates containing the drug supplemented agar are inoculated with a 0.001 ml drop of the cell suspension using a Steers replicator, yielding approximately 10^4 to 10^5 cells per spot. The plates are incubated overnight at 35° C. Following incubation the Minimum Inhibitory Concentration (MIC μg/ml), the lowest concentration of drug that inhibits visible growth of the organism, was read and recorded.

Compound	melting point [°C]	MIC (SAUR 9218) [µg/mL]
O=C(Nc1ccc(Br)cc1-c1nnn[nH]1)c1cccc(S(=O)(=O)N2CCOCC2)c1 [Example 17, N-[4-bromo-2-(1H-tetraazol-5-yl)phenyl]-3-(morpholin-4-ylsulfonyl)benzamide]	228 to 230	64 (≈ 130 µM)
CC(C)(C)C(=O)OCn1nnc(-c2cc(Br)ccc2NC(=O)c2cccc(S(=O)(=O)N3CCOCC3)c2)n1 [Example 21, [5-(5-bromo-2-{[3-(morpholin-4-ylsulfonyl)benzoyl]amino}phenyl)-2H-tetraazol-2-yl]methyl pivalate]	210 to 212	> 64
N#Cc1ccc(NC(=O)c2cccc(S(=O)(=O)N3CCOCC3)c2)c(-c2n[nH]c(=O)o2)c1 [Example 18, N-[4-cyano-2-(5-oxo-4,5-dihydro-1,3,4-oxadiazol-2-yl)phenyl]-3-(morpholin-4-ylsulfonyl)benzamide]	283 to 285	> 128

Now those with a lower MIC (SAUR 9218), led by results:

melting point [°C]	MIC (SAUR 9218) [µg/mL]	Compound
293 to 295	0.125 (≈ 0.266 µM)	N#Cc1ccc(NC(=O)c2cc3cccc(S(=O)(=O)c4ccccc4)c3[nH]2)c(-c2nnn[nH]2)c1 [Example 25, N-[4-cyano-2-(1H-tetraazol-5-yl)phenyl]-7-(phenylsulfonyl)-1H-indole-2-carboxamide]
225 to 229	8 (≈ 14.9 µM)	N#Cc1ccc(NC(=O)c2ccc(S(=O)(=O)N3CCc4cc(Cl)ccc43)cc2)c(-c2n[nH]c(=S)o2)c1 [Example 23, 4-[(5-chloro-2,3-dihydro-1H-indol-1-yl)sulfonyl]-N-[4-cyano-2-(5-thioxo-4,5-dihydro-1,3,4-oxadiazol-2-yl)phenyl]benzamide]

Reference: US20040142981A1, “Antibacterial benzoic acid derivatives” (priority 2002, published 2004)
